Results from PMC11620517, “Novel hydrazone compounds with broad-spectrum antiplasmodial activity and synergistic interactions with antimalarial drugs” (Antimicrobial Agents and Chemotherapy, 2024).
pIC50: −log10 of the molar value. Read-outs that look alike come from different tables or passages of the source.

Tests used:
[1] = tested on: P. berghei male gamete activation; test: Exflagellation assay (male gametocyte activation); type: cell-based, Plasmodium berghei; details: 125 nM, positive control
Experimental: Exflagellation assays were performed to assess the effect of CB compounds on P. berghei male gametocyte activation ([19]). Tail blood from PYR-administered mice was mixed with DMSO, aphidicolin (125 nM), or CB compounds (10 µM) in complete ookinete medium and heparin (30 µg/mL) ([19]). After a 15-minute incubation, the sample was diluted in complete ookinete medium with 10 µM inhibitor and adjusted to a final blood concentration of 1:20. Exflagellations were quantified by counting all events in the middle squares of a hemocytometer. The effect of CB compounds on macrogamete formation was analyzed by flow cytometry using the anti-Pbs21 antibody ([65]). Following PYR administration, infected blood for cardiac puncture was cultured with CB compounds (10 µM) for 2 hours to stimulate gametocyte activation ([66]). Aliquots were then incubated with anti-Pbs21 antibody (1:500) for 1 hour, followed by anti-mouse IgG conjugated Alexa Fluor 594 (1:1,000) for another hour ([65]). Samples were centrifuged (3,000 × g for 3 minutes), pellets were resuspended in phosphate-buffered saline (PBS) and analyzed by flow cytometry (FACSCelesta, FACS Diva Software, BD Biosciences, San Jose, CA, USA) with 1 million events counted per experiment ([66]).

human GST = molecular target: T1, human GST (Homo sapiens, UniProt P08263); test: GST inhibition assay (CDNB); type: biochemical
T1 construct: The open reading frames encoding PfGST, PbGST, and hGST were gene-synthesized; TEV cleavage site (C); Avitag (C); purchased InterRayBio, LLC; host or cells: E. coli BL21 (DE3)
T1 sequence (P08263 1-222): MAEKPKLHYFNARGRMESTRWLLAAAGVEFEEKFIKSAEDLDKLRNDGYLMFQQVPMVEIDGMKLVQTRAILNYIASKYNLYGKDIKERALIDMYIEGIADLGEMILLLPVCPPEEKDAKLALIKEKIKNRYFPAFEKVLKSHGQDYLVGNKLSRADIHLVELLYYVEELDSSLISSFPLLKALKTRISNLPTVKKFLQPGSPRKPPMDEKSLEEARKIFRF
Experimental: (§1) Enzymatic activities of recombinant GSTs were determined spectrophotometrically using the chromogenic substrate 1-chloro-2,4-dinitrobenzene (CDNB). Recombinant GST (0.35 mg/mL) was mixed with 1 mM CDNB in 100 mM HEPES. Stock solutions (10 mM) of the CB compounds and hemin were prepared in 100% dimethyl sulfoxide (DMSO) and then diluted at 0.5% DMSO ([14]). Each inhibitor has six concentrations ranging from 1 to 50 µM. The reaction was initiated with 1 mM glutathione (GSH) after 15 minutes. Absorbance change at 340 nm was measured for 1 hour. The slope was converted to micromole per minute using Beer’s equation and the extinction coefficient for the product S-(2,4-dinitrophenyl)glutathione (ε340 nm = 9.6 mM^–1 cm^–1) ([14]). The assay was validated using human placenta GST (#G8642) as a positive control.

[2] = molecular target: T2, recombinant P. falciparum GST (Plasmodium falciparum, UniProt Q8ILQ7); test: GST inhibition assay (CDNB); type: biochemical
T2 construct: The open reading frames encoding PfGST, PbGST, and hGST were gene-synthesized; TEV cleavage site (C); Avitag (C); purchased InterRayBio, LLC; host or cells: E. coli BL21 (DE3)
T2 sequence (Q8ILQ7 1-211): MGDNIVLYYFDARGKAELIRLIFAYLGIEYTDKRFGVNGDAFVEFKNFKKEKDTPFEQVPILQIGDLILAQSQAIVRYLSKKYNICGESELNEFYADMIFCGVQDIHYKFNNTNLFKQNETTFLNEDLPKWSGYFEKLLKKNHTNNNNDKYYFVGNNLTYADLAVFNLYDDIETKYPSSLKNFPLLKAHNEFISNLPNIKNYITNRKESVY
Experimental: as §1

[3] = tested on: recombinant P. berghei GST; test: GST inhibition assay (CDNB); type: biochemical, Plasmodium berghei
Experimental: as §1

P. falciparum C2B = test: Malaria SYBR Green I-Based Fluorescence (MSF) assay, blood stages; type: cell-based; details: Plasmodium falciparum, 72 h, read-out: IC50 (µM) (±SD) for strain: C2B
Experimental: (§2) MSF assays were performed in vitro with four P. falciparum strains: D6 (drug sensitive), TM91-C235 (multidrug resistant), W2 (CQ resistant), and C2B (multidrug resistant against ATQ). Parasite strains were kept continuously in long-term cultures as described ([22]). Pre-dosed 384-well plates containing […] serial dilutions of CB compounds (0.0098–20 µM) were prepared using the Tecan Freedom Evo liquid handling system (Tecan USA, Inc., Durham, NC, USA) and were stored at 4°C. A CQ control plate (2,000 ng/mL) was included in each run. Based on modifications of previous methods ([17], [55]), late-ring or early-trophozoite stages were cultured in pre-dosed plates with 0.3% parasitemia and 2% hematocrit. Cultures were incubated for 72 hours at 37°C in a controlled atmosphere of 5% CO2, 5% O2, and 90% N2. Lysis buffer, consisting of 20 mM Tris HCl, 5 mM EDTA, 1.6% Triton X, 0.016% saponin, and SYBR Green I dye at a 20X concentration (Invitrogen #S-7567), was added to the plates for a final 10X SYBR Green concentration. Plates containing cell culture media and lysis buffer were incubated in the dark at 25°C for 24 hours, and the relative fluorescence units (RFU) were measured using the Tecan Genios Plus (Tecan USA, Inc.).

P. falciparum D6 = test: as above; type: cell-based; details: Plasmodium falciparum, D6; blood stages, 72 hours, drug-sensitive strain; read-out: IC50 (µM) (±SD) for strain: D6
Experimental: as §2

P. falciparum TM91c235 = test: as above; type: cell-based; details: Plasmodium falciparum; blood stages, 72 hours, multidrug resistant strain; read-out: IC50 (µM) (±SD) for strain: TM91c235
Experimental: as §2

P. falciparum W2 = test: as above; type: cell-based; details: Plasmodium falciparum, W2; blood stages, 72 hours, CQ resistant strain; read-out: IC50 (µM) (±SD) for strain: W2
Experimental: as §2

[4] = tested on: P. cynomolgi hypnozoites and hepatic schizonts; test: P. cynomolgi liver-stage inhibition assay; type: cell-based, Plasmodium cynomolgi; details: Plasmodium cynomolgi, prophylactic drug treatment mode
Experimental: (§3) Primary primate hepatocytes were seeded in 384-well plates and used within 2–4 days ([56]). P. cynomolgi B strain parasites were inoculated and developed into hypnozoites and schizonts. CB compounds were tested in 8-point, threefold serial dilutions (100 µM to […]) for both prophylactic (4 days starting with sporozoite addition) and radical cure (4 days starting day 4 post-inoculation) modalities ([56][–][60]). The Operetta CLS imaging system and Harmony Software 4.9 (Perkin Elmer, Waltham, MA, USA) analyzed the plates, and the percentage of inhibition (PI) was calculated in Python using equation (1), where parasitic quantities (hypnozoite and schizont counts) were normalized to the negative control ([57]). Each plate included negative (DMSO) and positive (KDU691, maduramicin, tafenoquine) controls ([58]). IC50 values were determined using an 8-point, threefold dilution format and a Python-adapted grid algorithm for fitting PI to a four-parameter logistic function ([61]).
PI = 100 ∗(1−(xy/Meanneg))

[5] = tested on: primary primate hepatocytes; test: hepatocyte toxicity in the P. cynomolgi liver-stage assay; type: cell-based
Experimental: as §3

[6] = tested on: P. berghei ookinete development (Ookluc parasites); test: P. berghei ookinete luciferase inhibition assay; type: cell-based, Plasmodium berghei; details: dose–response 2.5–75 µM
Experimental: Mice were pretreated with phenylhydrazine [6 mg/mL, intraperitoneal injection (IP)] 3 days before intravenous injection (IV) infection with P. berghei Ookluc parasites ([19], [62]). Once parasitemia exceeded 15%, the mice received PYR (1 mg/mL, IP) ([19], [62]). Twenty-four hours after PYR treatment, infected mice were assessed for at least 10 exflagellations before blood was collected by heart puncture ([19], [62]). Infected blood (1:20 dilution) was incubated with 8-point serial dilutions (2.5–75 µM) of CB compounds for 24 hours at 19°C with gentle shaking ([62], [64]). Relative luminescence units (RLU) of mature ookinetes were measured using the Promega Nano-Glo Luciferase Assay System Kit and a SpectraMax M3 Microplate Reader (Molecular Devices, San Jose, CA, USA) after 3 minutes. Giemsa blood smears confirmed ookinetes.

in vitro = details: human, HepG2 cells
Experimental: HepG2 cell viability was assessed using the Cell Proliferation kit with trypan blue exclusion. […] After incubation, a 1.5-mg/mL Cell Proliferation kit solution diluted in complete MEM medium was added to each well, followed by 1-hour dark incubation at 25°C. After aspiration of media and inhibitors, the plates were dried in a hood for 15 minutes, and acidified isopropyl alcohol was added to dissolve formazan dye crystals. The plates were then rotated for 15–30 minutes, and absorbance was determined using a Perkin Elmer Ensight plate reader.

[7] = tested on: P. berghei blood-stage parasites; test: P. berghei blood-stage isobolograms; type: cell-based, Plasmodium berghei; details: LUM in combination with DHA (positive control)
Experimental: Antimalarial activity and IC50 values of CB-61 and five antimalarial drugs were assessed using the previously described in vitro drug luminescence assay ([14], [68]). Blood-stage isobolograms were performed to confirm synergistic combinations between CB-61 and the five drugs, following established protocols ([69]). Thirty-two-fold IC50 concentrations were used to obtain six concentration ranges for each drug combination, and then they were serially diluted five times ([67]). IC50 scores for each drug alone were determined, and FIC50 values (FIC50 = […]) were calculated and plotted ([70], [71]). The Promega Luciferase Assay System Kit was used to measure mature schizonts’ RLUs, and Giemsa blood smears confirmed the presence of schizonts ([14]).

[8] = recombinant GST 0.35 mg/mL, 1–50 µM

With `C[C@@]1(CO)[C@H](O)CC[C@@]2(C)[C@H]1CC[C@H]1C[C@@H]3C[C@@]12CC[C@]3(O)CO` [aphidicolin] as the compound, how does the “number of exflagellation events” value [1] read?
The value was < 50%.

What does the source list for `O=C(Nc1cc(Cl)ccc1O)c1cc2nc(-c3ccccc3)cc(-c3ccccc3)n2n1` [CB-59]?
GST inhibition (human GST; 6-point 1–50 µM): did not inhibit; GST inhibition ([2]; 6-point 1–50 µM): did not inhibit; GST inhibition ([3]; 6-point 1–50 µM): did not inhibit; IC50 (P. falciparum C2B): 2.91 µM; IC50 (P. falciparum D6): 1.73 µM; IC50 (P. falciparum TM91c235): 2.96 µM; IC50 (P. falciparum W2): 0.69 µM; pIC50 ([4]; read-out: Hypnozoite IC50): < 5.00; pIC50 ([4]; read-out: Schizont IC50): < 5.00; pIC50 ([4]; read-out: Total parasite IC50): < 5.00; Toxicity [5]: >10 µM; activity in ookinete formation [6]: no activity; IC50 at 48 h (in vitro): > 20000 nM

For `CCCCN(CCCC)CC(O)c1cc(Cl)cc2c1-c1ccc(Cl)cc1/C2=C/c1ccc(Cl)cc1` (stereo not drawn) [LUM, lumefantrine, reference compound], which “Mean ΣFIC50” value [7] is on record?
Its value is 0.74.

What does the source list for Hemin [reference compound]?
pIC50 (human GST; [8]): > 6.00; pIC50 [2, 8]: 5.80; pIC50 [3, 8]: 4.79
